Experimental data published in PubChem BioAssay AID330 (DTP/NCI, 2004).
Where “and” joins values, the source holds several entries; their conditions need not be identical. Equal values may be shown once. Toxic doses and inconclusive results are not listed. How the source made its calls: active means survival T/C of 150% or more; inactive means T/C below 125% in these data. Square brackets hold non-standard residues; d marks the D form. Peptide text beside a SMILES is read from it. * marks the point of attachment. ξ: configuration not given here. ξAsp(βξ-Me) = CC(C(=O)O)C(N)C(=O)O; X11 = CC(N*)C1NC(=O)C2CCCCN2C1=O; ξAbu(3ξ-NH2) = CC(N)C(N)C(=O)O; X10 = CCC(C)CCC/C=C/CC(=O)*

System: P388 leukemia ip, CD2F1 mice, survival T/C
Experiment: NCI In Vivo Anticancer Drug Screen. Data for tumor model P388 Leukemia (intraperitoneal) in CD2F1 (CDF1) mice
Conditions: endpoint: median survival time, higher = longer survival
Procedure, shortened: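 Mice carrying the transplanted tumor received test compound or vehicle. Survival was recorded in each group, and the value is the treated-group measurement divided by that of the vehicle-treated control group.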

[1] = dose: 50.0 mg/kg/injection, schedule: Q01DX005 (ip), vehicle: saline
[2] = dose: 100.0 mg/kg/injection, schedule: Q01DX005 (ip), vehicle: saline
[3] = dose: 200.0 mg/kg/injection, schedule: Q01DX005 (ip), vehicle: saline
[4] = dose: 50.0 mg/kg/injection, schedule: Q01DX005 (ip), vehicle: Klucel (hydroxypropylcellulose) (HPC)
[5] = dose: 100.0 mg/kg/injection, schedule: Q01DX005 (ip), vehicle: Klucel (hydroxypropylcellulose) (HPC)
[6] = dose: 200.0 mg/kg/injection, schedule: Q01DX005 (ip), vehicle: Klucel (hydroxypropylcellulose) (HPC)
[7] = dose: 50.0 mg/kg/injection, schedule: Q01DX009 (ip), vehicle: suspension in saline
[8] = dose: 100.0 mg/kg/injection, schedule: Q01DX009 (ip), vehicle: suspension in saline
[9] = dose: 60.0 mg/kg/injection, schedule: Q01DX005 (ip), vehicle: saline with Tween-80
[10] = dose: 120.0 mg/kg/injection, schedule: Q01DX005 (ip), vehicle: saline with Tween-80
[11] = dose: 240.0 mg/kg/injection, schedule: Q01DX005 (ip), vehicle: saline with Tween-80
[12] = dose: 50.0 mg/kg/injection, schedule: Q01DX005 (ip), vehicle: saline with Tween-80
[13] = dose: 100.0 mg/kg/injection, schedule: Q01DX005 (ip), vehicle: saline with Tween-80
[14] = dose: 200.0 mg/kg/injection, schedule: Q01DX005 (ip), vehicle: saline with Tween-80

Measured: T/C

COC(=O)C1=C(C)NC(=S)NC1c1ccco1 (configuration not stated)
inactive: dose: 100.0 mg/kg/injection, schedule: Q04DX003 (ip), vehicle: saline with Tween-80 95 % of control | dose: 200.0 mg/kg/injection, schedule: Q04DX003 (ip), vehicle: saline with Tween-80 95 % of control | dose: 400.0 mg/kg/injection, schedule: Q04DX003 (ip), vehicle: saline with Tween-80 100 % of control

CN(C)CCC(C#N)(CCN(C)C)c1ccccc1
inactive: [1] 105 % of control | [2] 103 % of control | [3] 106 % of control

COc1ccc(CCNC(=O)CC2CC(=O)N(CCc3ccc(OC)c(OC)c3)C(=O)C2)cc1OC
inactive: [4] 101 % of control | [5] 98 % of control | [6] 101 % of control

CC(=O)Nc1ccc(S(=O)(=O)CC#N)cc1
inactive: [7] 87 % of control | [8] 93 % of control

COC(=O)CC1(C(=O)OC)C2=C(CCCC2)N2CCCC21 (configuration not stated)
inactive: dose: 21.88 mg/kg/injection, schedule: Q01DX009 (ip), vehicle: Klucel (hydroxypropylcellulose) (HPC) 102 % of control | dose: 43.75 mg/kg/injection, schedule: Q01DX009 (ip), vehicle: Klucel (hydroxypropylcellulose) (HPC) 102 % of control | dose: 87.5 mg/kg/injection, schedule: Q01DX009 (ip), vehicle: Klucel (hydroxypropylcellulose) (HPC) 100 % of control | dose: 175.0 mg/kg/injection, schedule: Q01DX009 (ip), vehicle: Klucel (hydroxypropylcellulose) (HPC) 100 % of control

CCC(C)CCC/C=C/CC(=O)NC(CC(=O)O)C(=O)NC(C(=O)NC(CC(=O)O)C(=O)NCC(=O)NC(CC(=O)O)C(=O)NCC(=O)NC(C(=O)NC(C(=O)N1CCCC1C(=O)NC(C)C1NC(=O)C2CCCCN2C1=O)C(C)C)C(C)N)C(C)C(=O)O (stereo not drawn) (X10-D[ξAsp(βξ-Me)]DGDG[ξAbu(3ξ-NH2)]VP-X11; configuration not given here)
inactive: dose: 25.0 mg/kg/injection, schedule: Q01DX009 (ip), vehicle: saline + alcohol 103 % of control | dose: 50.0 mg/kg/injection, schedule: Q01DX009 (ip), vehicle: saline + alcohol 103 % of control | dose: 100.0 mg/kg/injection, schedule: Q01DX009 (ip), vehicle: saline + alcohol 107 % of control and 88 % of control

O=c1nc2n(CC(O)C(O)C(O)C(O)CO)c3ccc(Cl)cc3nc-2c(=O)[nH]1 (configuration not stated)
inactive: [1] 104 % of control | [2] 104 % of control | [3] 104 % of control

Cc1cc(C(O)(C(F)(F)F)C(F)(F)F)c(N)c(C(O)(C(F)(F)F)C(F)(F)F)c1
inactive: [4] 104 % of control | [5] 103 % of control

O=C(O)C1CSC(c2ccc(Cl)cc2)N1 (configuration not stated)
inactive: [7] 95 % of control | [8] 95 % of control | dose: 200.0 mg/kg/injection, schedule: Q01DX009 (ip), vehicle: suspension in saline 95 % of control and 96 % of control

Cn1cnc2cc3c(cc2c1=O)nc1n3CCCC1
inactive: dose: 100.0 mg/kg/injection, schedule: Q04DX003 (ip), vehicle: saline 102 % of control | dose: 200.0 mg/kg/injection, schedule: Q04DX003 (ip), vehicle: saline 95 % of control

CN1CCC/C1=C1/C(=O)Nc2ccc(Cl)cc21
inactive: [4] 108 % of control | [5] 107 % of control | [6] 102 % of control

CC(=O)OCc1cocc1COC(C)=O
inactive: [4] 100 % of control and 103 % of control | [5] 107 % of control and 98 % of control | [6] 117 % of control and 94 % of control

COc1cc([C@H]2c3cc4c(cc3CC3COC(=O)[C@@H]32)OCO4)cc(Br)c1O (some centres not stated)
inactive: dose: 15.0 mg/kg/injection, schedule: Q01DX005 (ip), vehicle: saline with Tween-80 101 % of control | dose: 30.0 mg/kg/injection, schedule: Q01DX005 (ip), vehicle: saline with Tween-80 101 % of control | [9] 99 % of control and 104 % of control | [10] 110 % of control | [11] 110 % of control

NC(=O)c1csc([C@@H](O)Cc2ccccc2)n1
inactive: [9] 105 % of control | [10] 106 % of control | [11] 106 % of control

CCCCCCCCCCCCNC(=O)c1ccc[n+](Cc2ccc(Cl)c(Cl)c2)c1
inactive: dose: 3.13 mg/kg/injection, schedule: Q01DX009 (ip), vehicle: saline with Tween-80 100 % of control | dose: 6.25 mg/kg/injection, schedule: Q01DX009 (ip), vehicle: saline with Tween-80 95 % of control | dose: 12.5 mg/kg/injection, schedule: Q01DX009 (ip), vehicle: saline with Tween-80 100 % of control

CN1CCCC1c1ccc[n+](C)c1 (configuration not stated)
inactive: dose: 50.0 mg/kg/injection, schedule: Q01DX009 (ip), vehicle: saline 110 % of control and 108 % of control | dose: 100.0 mg/kg/injection, schedule: Q01DX009 (ip), vehicle: saline 110 % of control and 105 % of control | dose: 200.0 mg/kg/injection, schedule: Q01DX009 (ip), vehicle: saline 115 % of control and 113 % of control

Cc1onc(-c2c(Cl)cccc2Cl)c1C(=O)Nc1ccc(Cl)c(Cl)c1Cl
inactive: dose: 60.0 mg/kg/injection, schedule: Q01DX005 (ip), vehicle: Klucel (hydroxypropylcellulose) (HPC) 96 % of control | dose: 120.0 mg/kg/injection, schedule: Q01DX005 (ip), vehicle: Klucel (hydroxypropylcellulose) (HPC) 93 % of control | dose: 240.0 mg/kg/injection, schedule: Q01DX005 (ip), vehicle: Klucel (hydroxypropylcellulose) (HPC) 92 % of control

CC1=CC(C)(C)Nc2ccc(Cc3ccc4c(c3)C(C)=CC(C)(C)N4)cc21
inactive: [9] 101 % of control | [10] 94 % of control | [11] 95 % of control

C[CH2][Sn]([CH2]C)([O]S(=O)(=O)CC12CCC(CC1=O)C2(C)C)[O]S(=O)(=O)CC12CCC(CC1=O)C2(C)C
inactive: dose: 1.56 mg/kg/injection, schedule: Q01DX009 (ip), vehicle: saline 102 % of control | dose: 3.12 mg/kg/injection, schedule: Q01DX009 (ip), vehicle: saline 119 % of control

Cc1c2cnccc2c(C)c2c1c1ccccc1n2Cc1ccccc1
inactive: dose: 6.25 mg/kg/injection, schedule: Q04DX003 (ip), vehicle: distilled water + Tween-80 97 % of control | dose: 12.5 mg/kg/injection, schedule: Q04DX003 (ip), vehicle: distilled water + Tween-80 95 % of control | dose: 25.0 mg/kg/injection, schedule: Q04DX003 (ip), vehicle: distilled water + Tween-80 95 % of control | dose: 50.0 mg/kg/injection, schedule: Q04DX003 (ip), vehicle: distilled water + Tween-80 95 % of control | dose: 100.0 mg/kg/injection, schedule: Q04DX003 (ip), vehicle: distilled water + Tween-80 99 % of control | dose: 200.0 mg/kg/injection, schedule: Q04DX003 (ip), vehicle: distilled water + Tween-80 94 % of control

O=C1c2ccccc2C(=O)c2c(OCCOCCO)cccc21
inactive: [12] 118 % of control | [13] 112 % of control | [14] 96 % of control

Fc1ccc(N/N=c2\nnc3ccc(F)cc3s2)cc1
inactive: dose: 100.0 mg/kg/injection, schedule: Q04DX002 (ip), vehicle: saline with Tween-80 102 % of control | dose: 200.0 mg/kg/injection, schedule: Q04DX002 (ip), vehicle: saline with Tween-80 95 % of control | dose: 400.0 mg/kg/injection, schedule: Q04DX002 (ip), vehicle: saline with Tween-80 94 % of control

CCOc1c(N=Nc2ccc(OC)cc2)c(-c2ccccc2)nn1C(N)=S
inactive: [12] 100 % of control | [13] 100 % of control | [14] 102 % of control

CCOC(=O)NNC(=O)Nc1ccc(O[Si](C)(C)C)cc1
inactive: [9] 109 % of control | [10] 102 % of control | [11] 100 % of control

O=C1OC(=O)C2C1C1C(c3ccccc3)=C(c3ccccc3)C2C2C(=O)OC(=O)C21 (configuration not stated)
inactive: [9] 103 % of control | [10] 111 % of control | [11] 116 % of control
